# Data published in publication PMC9186351, “Discovery of N-quinazolinone-4-hydroxy-2-quinolone-3-carboxamides as DNA gyrase B-targeted antibacterial agents” (Journal of Enzyme Inhibition and Medicinal Chemistry, 2022).
# Tests used:
# [1] = target: T1, S. aureus GyrB (Staphylococcus aureus, UniProt P0A0K8); assay: S. aureus GyrB (Gyrase ATPase) inhibition assay, ADP-Glo; format: biochemical
# T1 construct: purchased Inspiralis Ltd., Norwich, UK
# Experimental: The IC50 values for S. aureus GyrB were determined according to our previously reported protocol.[16] For this assay, the reaction mixture (10 μL) consisted of 5 nM S. aureus Gyrase (Inspiralis Ltd., Norwich, UK), assay buffer [40 mM HEPES-KOH (pH 7.6), 10 mM magnesium acetate, 10 mM dithiothreitol, 50 g/L BSA, and 500 mM potassium glutamate], the test compound (0.01–100 μM), 1% DMSO, 10 nM linear pBR322 DNA, and […]. The target compound was dissolved in DMSO (10 mM). A series of dilutions (0.1–1000 μM) were prepared from the stock solution with the assay buffer and DMSO. The dilutions (1 μL) were respectively added to the PCR tubes along with the buffer (7 μL), the linear pBR322 DNA (0.5 μL), S. aureus Gyrase (0.5 μL), and ATP (1 μL). The PCR tubes were sealed and incubated at 37 °C for 30 min. The ADP-Glo reagent (40 μL) was added to stop the reaction and use up the remaining ATP.
# The detection reagent (50 μL) was then added and mixed. After 5 min, the mixture in each PCR tube was put in the well of a 96-well plate and its luminescence was measured by the BioTek Synergy 2 microplate reader. The activity values (%) of S. aureus Gyrase treated by the test compound at different concentrations were determined based on the luminescence. GraphPad Prism version 5 software (GraphPad Software Inc., La Jolla, CA) was used to calculate the IC50 values.
# [2] = Mouse microsomal stability assay; format: in vitro ADME; details: mouse, microsomes, pH 7.4
# Experimental: The mouse liver microsomes were purchased from BioreclamationIVT and stored at −80 °C. The working solutions (0.2 mM) of the control compound, i.e. dextromethorphan, and the test compound dissolved in DMSO were prepared. Terfenadine (5 ng/mL) and tolbutamide (10 ng/mL) dissolved in acetonitrile were used as two quenching solutions. NADPH was dissolved in the phosphate buffer (50 mM K2HPO4, pH 7.4) at 5 mM. The mouse liver microsomes were thawed at 37 °C. The concentration of the stock solution was 20 mg/mL. The working solution (0.629 mg/mL) was prepared by dilution in phosphate buffer.
# The working solution of the control/test compound (1.5 µL) was mixed with the liver microsome working solution (238.5 µL) in a 96-well plate and pre-incubated at 37 °C for 5 min. The 5 mM NADPH working solution (60 µL) was added to the solution to initiate the metabolic reaction. At each time point (0, 5, 15, 30, and 60 for the control/test compound), 30 µL of the reaction mixture was sampled and moved to 300 µL of quenching solutions. When the sampling was done, each sample was centrifuged at 4000 rpm at 4 °C for 15 min. The supernatant was analysed with the same HPLC system as the plasma stability assay. The residues (%) of the test/control compound along with the incubation time were calculated based on which the half-life (t1/2) value was determined.
# T1 sequence (P0A0K8 whole entry): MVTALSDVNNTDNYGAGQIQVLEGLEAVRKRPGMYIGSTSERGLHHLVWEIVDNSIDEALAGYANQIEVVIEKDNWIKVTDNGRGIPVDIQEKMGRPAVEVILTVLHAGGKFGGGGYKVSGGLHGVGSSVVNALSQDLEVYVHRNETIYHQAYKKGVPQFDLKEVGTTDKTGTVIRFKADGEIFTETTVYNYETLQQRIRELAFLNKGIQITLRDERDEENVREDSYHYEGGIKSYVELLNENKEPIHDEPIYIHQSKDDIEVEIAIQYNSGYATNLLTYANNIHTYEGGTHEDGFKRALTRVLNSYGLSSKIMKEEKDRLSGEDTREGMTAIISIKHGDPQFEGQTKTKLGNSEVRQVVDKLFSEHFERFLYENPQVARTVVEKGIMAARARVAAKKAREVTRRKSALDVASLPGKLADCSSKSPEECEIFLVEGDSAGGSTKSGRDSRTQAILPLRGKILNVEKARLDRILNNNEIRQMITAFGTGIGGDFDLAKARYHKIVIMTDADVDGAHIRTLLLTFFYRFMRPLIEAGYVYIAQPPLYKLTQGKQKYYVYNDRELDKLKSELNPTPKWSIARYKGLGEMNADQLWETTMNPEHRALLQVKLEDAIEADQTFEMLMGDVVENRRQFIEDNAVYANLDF
# T1 sequence (P20831 whole entry, further chain): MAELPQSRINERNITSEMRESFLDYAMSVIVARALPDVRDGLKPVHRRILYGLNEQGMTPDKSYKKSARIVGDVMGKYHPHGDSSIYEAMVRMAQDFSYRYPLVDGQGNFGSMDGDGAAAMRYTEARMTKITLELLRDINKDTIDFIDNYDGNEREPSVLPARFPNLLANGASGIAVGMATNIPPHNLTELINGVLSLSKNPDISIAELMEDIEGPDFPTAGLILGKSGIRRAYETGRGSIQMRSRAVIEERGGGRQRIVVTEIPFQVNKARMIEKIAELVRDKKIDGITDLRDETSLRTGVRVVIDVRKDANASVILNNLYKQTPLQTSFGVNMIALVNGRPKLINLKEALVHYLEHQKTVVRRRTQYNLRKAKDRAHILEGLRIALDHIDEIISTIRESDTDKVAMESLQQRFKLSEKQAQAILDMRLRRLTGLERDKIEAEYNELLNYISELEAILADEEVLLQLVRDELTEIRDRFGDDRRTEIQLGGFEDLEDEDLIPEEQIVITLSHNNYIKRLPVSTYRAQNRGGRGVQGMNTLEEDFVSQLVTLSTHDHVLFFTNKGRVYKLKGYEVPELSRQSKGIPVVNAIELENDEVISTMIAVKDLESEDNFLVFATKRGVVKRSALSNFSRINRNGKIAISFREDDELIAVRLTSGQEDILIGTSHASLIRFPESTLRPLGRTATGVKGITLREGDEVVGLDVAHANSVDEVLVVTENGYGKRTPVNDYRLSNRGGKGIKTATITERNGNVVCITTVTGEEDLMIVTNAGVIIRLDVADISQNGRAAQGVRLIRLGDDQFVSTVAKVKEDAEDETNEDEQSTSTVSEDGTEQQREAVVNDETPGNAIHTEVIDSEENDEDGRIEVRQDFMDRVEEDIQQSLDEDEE
smiles,measurement,setting,value
"CCCCCc1nc2ccccc2c(=O)n1NC(=O)c1c(O)c2ccccc2n(CC)c1=O [f1, N-(4-oxo-2-pentylquinazolin-3(4H)-yl)-1-ethyl-4-hydroxy-2-oxo-1,2-dihydroquinoline-3-carboxamide]",IC50,"[1]; IC50 for GyrB (µM, mean ± SD), S. aureus Gyrase ATPase inhibition, average of duplicates",1.21 ± 0.13 µM
same,inhibition at 10 µM,[1]; read-out: GyrB inhibition rate (%) at 10 μM,72%
same,half-life at 1 µM,[2],24.5 min
